According to US9783536B2, “Nitrogen-containing heterocyclic compound or salt thereof” (FUJIFILM Corporation, priority 2013, dated 2017):
Where two headings read alike, the source gives them in different places.

Experiments:
CHO-K1 cells = assay: CHO cell toxicity test; type: cell-based, Chinese hamster; details: Cricetulus griseus, read-out: IC50 value (concentration at which the number of viable cells was suppressed to 50% or less)
Experimental: In a CHO cell toxicity test, the following was used.
Cell: CHO-K1 cells (derived from Chinese hamster ovary) Test medium: F-12 MEDIUM+FCS (manufactured by Biowest) having a final concentration of 2%
Detection reagent: CELLTITER-GLO™ LUMINESCENT CELL VIABILITY ASSAY (trade name, manufactured by PROMEGA Corporation)
The CHO-K1 cells were seeded in a 96-well microplate for culture at 5,000 cells/well, and cultured in a CO2 incubator (37° C.) for 24 hours. An evaluation compound (final concentration: from 25.00 μmol/L to 0.20 μmol/L, common ratio: […]) was added thereto, followed by culturing for 24 hours, and the number of viable cells was calculated from emission intensity by CELLTITER-GLO™ (trade name, manufactured by PROMEGA Corporation). In the measurement of the emission intensity, VARIOSKAN FLASH (manufactured by Thermo Fisher Scientific Inc.) was used.
Inhibition ratio (%)=100−(A/B)×100
A: Emission intensity in the presence of a test compound
B: Emission intensity in the absence of a test compound

human PI3Kα protein = molecular target: T1, human PI3Kα protein (Homo sapiens, UniProt P42336); assay: PI3Kα enzyme assay (ADP-Glo); type: biochemical; details: read-out: PI3Kα enzyme inhibitory activity
T1 construct: purchased Carna Biosciences, Inc; host or cells: baculovirus expression system
How it was run: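 Biotinylated human PI3Kα (baculovirus-expressed, 4.5 nmol/L) pre-incubated 15 min with compound in Tris-HCl pH 7.5, MgCl2, BSA; reaction 60 min at 25° C with 50 μmol/L PIP2 and 100 μmol/L ATP final. ADP quantified by ADP-Glo luminescence; IC50 calculated.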

[1] = molecular target: T2, GST fusion human ERK2 protein (Homo sapiens, UniProt P28482); assay: ERK2 enzyme assay (2); type: biochemical; details: ERK2 enzyme assay (2); read-out: ERK2 enzyme inhibitory activity (2)
T2 construct: purchased Carna Biosciences, Inc; host or cells: E. coli expression system
How it was run: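 IC50 values come from mobility-shift measurement of phosphorylated versus unphosphorylated 5-FAM peptide substrate after EDTA quench. Beforehand, compound and 1.25 nmol/L E. coli-expressed GST–human ERK2 stood 15 min at room temperature (pH 7.5), then 1 mmol/L ATP and 4.25 μmol/L substrate (final) were added for 120 min at 25 °C.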

[2] = CHO-K1 cells, 24 hours culture with compound, CellTiter-Glo

T1 sequence (P42336 whole entry): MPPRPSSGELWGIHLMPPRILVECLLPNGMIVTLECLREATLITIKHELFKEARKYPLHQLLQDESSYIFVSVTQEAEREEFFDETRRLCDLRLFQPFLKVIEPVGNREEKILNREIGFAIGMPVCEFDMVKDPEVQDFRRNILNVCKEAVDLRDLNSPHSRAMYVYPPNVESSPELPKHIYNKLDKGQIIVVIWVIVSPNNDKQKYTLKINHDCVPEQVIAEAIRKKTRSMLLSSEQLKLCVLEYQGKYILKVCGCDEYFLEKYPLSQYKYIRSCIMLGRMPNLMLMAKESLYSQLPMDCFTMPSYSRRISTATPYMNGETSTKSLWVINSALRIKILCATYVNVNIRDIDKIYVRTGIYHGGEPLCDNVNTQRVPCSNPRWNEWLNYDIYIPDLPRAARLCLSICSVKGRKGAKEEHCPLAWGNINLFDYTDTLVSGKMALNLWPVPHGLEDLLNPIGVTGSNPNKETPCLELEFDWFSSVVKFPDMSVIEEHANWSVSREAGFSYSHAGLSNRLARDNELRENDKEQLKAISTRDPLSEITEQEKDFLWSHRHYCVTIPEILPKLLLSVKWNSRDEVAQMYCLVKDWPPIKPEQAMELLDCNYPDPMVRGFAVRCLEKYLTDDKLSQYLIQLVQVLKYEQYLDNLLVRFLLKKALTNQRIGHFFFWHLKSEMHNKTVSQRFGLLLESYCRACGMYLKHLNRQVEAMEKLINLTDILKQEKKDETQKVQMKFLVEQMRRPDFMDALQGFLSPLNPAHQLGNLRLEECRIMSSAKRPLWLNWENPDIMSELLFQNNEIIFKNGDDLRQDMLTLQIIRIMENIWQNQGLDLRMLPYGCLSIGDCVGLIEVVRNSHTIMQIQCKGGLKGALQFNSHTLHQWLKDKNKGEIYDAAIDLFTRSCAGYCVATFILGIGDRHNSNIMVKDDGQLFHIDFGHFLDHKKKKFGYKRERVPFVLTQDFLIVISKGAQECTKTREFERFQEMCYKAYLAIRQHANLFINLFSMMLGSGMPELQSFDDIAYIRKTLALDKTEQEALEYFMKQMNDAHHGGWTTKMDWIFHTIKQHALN
T1 sequence (P27986 whole entry partner): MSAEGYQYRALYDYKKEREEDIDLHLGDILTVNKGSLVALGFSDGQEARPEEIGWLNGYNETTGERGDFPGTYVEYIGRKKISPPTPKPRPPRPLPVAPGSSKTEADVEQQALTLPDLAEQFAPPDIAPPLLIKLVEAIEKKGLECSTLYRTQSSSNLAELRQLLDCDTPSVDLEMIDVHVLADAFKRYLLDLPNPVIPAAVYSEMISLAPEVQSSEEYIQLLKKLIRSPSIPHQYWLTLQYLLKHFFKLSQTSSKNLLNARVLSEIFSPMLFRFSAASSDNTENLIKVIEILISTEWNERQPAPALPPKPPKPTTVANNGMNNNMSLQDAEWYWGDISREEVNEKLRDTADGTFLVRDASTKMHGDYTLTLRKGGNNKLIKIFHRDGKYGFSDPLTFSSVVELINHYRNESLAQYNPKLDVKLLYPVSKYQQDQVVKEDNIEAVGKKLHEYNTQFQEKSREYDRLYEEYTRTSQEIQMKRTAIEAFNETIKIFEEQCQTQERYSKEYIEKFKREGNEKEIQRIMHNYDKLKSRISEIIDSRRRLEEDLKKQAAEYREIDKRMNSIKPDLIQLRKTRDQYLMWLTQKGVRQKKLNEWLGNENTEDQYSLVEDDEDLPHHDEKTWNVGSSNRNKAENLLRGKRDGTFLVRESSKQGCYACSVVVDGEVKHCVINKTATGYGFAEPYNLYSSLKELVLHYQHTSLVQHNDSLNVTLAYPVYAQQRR
T2 sequence (P28482 whole entry, the tested form may be a part): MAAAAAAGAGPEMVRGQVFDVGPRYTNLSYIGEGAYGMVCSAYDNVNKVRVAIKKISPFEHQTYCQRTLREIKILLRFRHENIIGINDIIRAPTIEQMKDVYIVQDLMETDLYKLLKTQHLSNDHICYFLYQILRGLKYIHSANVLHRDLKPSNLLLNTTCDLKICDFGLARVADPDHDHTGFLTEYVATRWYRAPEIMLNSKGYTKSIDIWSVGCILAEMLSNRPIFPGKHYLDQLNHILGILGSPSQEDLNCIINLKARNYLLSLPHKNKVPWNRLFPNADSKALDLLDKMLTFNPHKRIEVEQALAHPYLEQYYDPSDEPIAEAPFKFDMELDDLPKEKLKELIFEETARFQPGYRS

| Compound | IC50 (human PI3Kα protein) [µM] | IC50 [1] [µM] | IC50 (CHO-K1 cells; [2]) [µM] | IC50 (CHO-K1 cells; CHO-K1, 24 h) [µM] |
| --- | --- | --- | --- | --- |
| CC(C)c1cnnc(Nc2ccc3ncc(-c4cnn(Cc5cccc(N)c5)c4)cc3n2)c1 [Example 0712, 7-(1-(3-Aminobenzyl)-1H-pyrazol-4-yl)-N-(5-isopropylpyridazin-3-yl)-1,5-naphthyridine-2-amine] | < 1 | < 1 | ≥ 25 | – |
| Cc1nn(C)cc1-c1cnc2ccc(Nc3cc(C(C)C)cnn3)nc2c1 [Example 0757, 7-(1,3-dimethyl-1H-pyrazol-4-yl)-N-(5-isopropylpyridazin-3-yl)-1,5-naphthyridine-2-amine] | < 1 | < 1 | ≥ 25 | – |
| CC(C)c1cnnc(Nc2ccc3ncc(-c4cnn(CCCN5CCOC[C@H]5C)c4)cc3n2)c1 [Example 0649] | < 1 | < 1 | ≥ 25 | – |
| CC(C)c1cnnc(Nc2ccc3ncc(-c4cnn(CCCN5CCOCC5=O)c4)cc3n2)c1 [Example 0424] | < 1 | < 1 | – | ≥ 25 |
| Cc1nn(CCCN2C[C@@H](C)O[C@@H](C)C2)cc1-c1cnc2ccc(Nc3cc(C(C)C)cnn3)nc2c1 [Example 0431] | < 1 | < 1 | ≥ 25 | – |
| CC(C)c1cnnc(Nc2ccc3ncc(-c4cnn(CCCN5CC(O)C5)c4)cc3n2)c1 [Example 0629] | < 1 | < 1 | ≥ 25 | – |
| CC(C)c1cnnc(Nc2ccc3ncc(-c4cn(C)nc4CC4CCOCC4)cc3n2)c1 [Example 0773] | < 1 | < 1 | ≥ 25 | – |
| CC(C)c1cnnc(Nc2ccc3ncc(-c4cnn(CCCN5C[C@@H](C)O[C@H](C)C5)c4)cc3n2)c1 [Example 0614] | < 1 | < 1 | ≥ 25 | – |
| CC(C)c1cnnc(Nc2ccc3ncc(-c4cn(C)nc4CF)cc3n2)c1 [Example 0626, 7-(3-(Fluoromethyl)-1-methyl-1H-pyrazol-4-yl)-N-(5-isopropylpyridazin-3-yl)-1,5-naphthyridine-2-amine] | < 1 | < 1 | ≥ 25 | – |
| CC(=O)N1CC(n2cc(-c3cnc4ccc(Nc5cc(C(C)C)cnn5)nc4c3)cn2)C1 [Example 0443] | < 1 | < 1 | ≥ 25 | – |
| CC(C)c1cnnc(Nc2ccc3ncc(-c4cnn(CCC5CCN(C)CC5)c4)cc3n2)c1 [Example 0487, N-(5-isopropylpyridazin-3-yl)-7-(1-(2-(1-methylpiperidin-4-yl)ethyl)-1H-pyrazol-4-yl)-1,5-naphthyridine-2-amine] | < 1 | < 1 | ≥ 25 | – |
| CC(=O)c1ccc(Cn2cc(-c3cnc4ccc(Nc5cc(C(C)C)cnn5)nc4c3)cn2)cc1 [Example 0795] | < 1 | < 1 | ≥ 25 | – |
| CC(C)c1cnnc(Nc2ccc3ncc(-c4cnn(Cc5cocn5)c4)cc3n2)c1 [Example 0450] | < 1 | < 1 | ≥ 25 | – |
| CC(C)c1cnnc(Nc2ccc3ncc(-c4cn(C)nc4-c4ccc(C#N)nc4)cc3n2)c1 [Example 0455] | < 1 | < 1 | ≥ 25 | – |
| CC(C)c1cnnc(Nc2ccc3ncc(-c4cnn(CCCN5C6CCC5COC6)c4)cc3n2)c1 [Example 0651] | < 1 | < 1 | ≥ 25 | – |
| CCc1nn(C)cc1-c1cnc2ccc(Nc3cc(C(C)C)cnn3)nc2c1 [Example 0761] | < 1 | < 1 | ≥ 25 | – |
| CCn1cc(-c2cnc3ccc(Nc4cc(C(C)C)cnn4)nc3c2)c(-c2cccnc2)n1 [Example 0576] | < 1 | < 1 | ≥ 25 | – |
| CC(C)c1cnnc(Nc2ccc3ncc(-c4cnn(CCCN5CCSCC5)c4)cc3n2)c1 [Example 0420] | < 1 | < 1 | ≥ 25 | – |
| CC(C)c1cnnc(Nc2ccc3ncc(-c4cnn(CC(O)CN5CCCC5)c4)cc3n2)c1 (stereo not drawn) [Example 0724, 1-(4-(6-((5-Isopropylpyridazin-3-yl)amino)-1,5-naphthyridin-3-yl)-1H-pyrazol-1-yl)-3-(pyrrolidin-1-yl)propan-2-ol] | < 1 | < 1 | ≥ 25 | – |
| CC(C)c1cnnc(Nc2ccc3ncc(-c4cnn(CCCN5C[C@@H](C)N(C)[C@@H](C)C5)c4)cc3n2)c1 [Example 0426, N-(5-isopropylpyridazin-3-yl)-7-(1-(3-((3S,5R)-3,4,5-trimethylpiperazin-1-yl)propyl)-1H-pyrazol-4-yl)-1,5-naphthyridine-2-amine] | < 1 | < 1 | ≥ 25 | – |
| CC(C)c1cnnc(Nc2ccc3ncc(-c4cnn(CC(=O)N(C)C)c4)cc3n2)c1 [Example 0549, 2-(4-(6-((5-Isopropylpyridazin-3-yl)amino)-1,5-naphthyridin-3-yl)-1H-pyrazol-1-yl)-N,N-dimethylacetamide] | < 1 | < 1 | ≥ 25 | – |
| CC(C)c1cnnc(Nc2ccc3ncc(-c4cn(C)nc4-c4cccnc4)cc3n2)c1 [Example 0515] | < 1 | < 1 | ≥ 25 | – |

Further lines, with some results ahead:

| IC50 (human PI3Kα protein) [µM] | IC50 [1] [µM] | Compound | IC50 (CHO-K1 cells; [2]) [µM] | IC50 (CHO-K1 cells; CHO-K1, 24 h) [µM] |
| --- | --- | --- | --- | --- |
| < 1 | < 1 | CC(C)c1cnnc(Nc2ccc3ncc(-c4cn(C)nc4C(F)F)cc3n2)c1 [Example 0635] | ≥ 25 | – |
| < 1 | < 1 | CC(C)c1cnnc(Nc2ccc3ncc(-c4cnn(CCCN5CCC(O)CC5)c4)cc3n2)c1 [Example 0430] | ≥ 25 | – |
| < 1 | < 1 | CC(C)c1cnnc(Nc2ccc3ncc(-c4cn(C)nc4-c4ccncc4)cc3n2)c1 [Example 0552] | ≥ 25 | – |
| < 1 | < 1 | CC(C)c1cnnc(Nc2ccc3ncc(-c4cnn(Cc5ccc(N6CCOCC6)nc5)c4)cc3n2)c1 [Example 0462, N-(5-isopropylpyridazin-3-yl)-7-(1-((6-morpholinopyridin-3-yl)methyl)-1H-pyrazol-4-yl)-1,5-naphthyridine-2-amine] | ≥ 25 | – |
| < 1 | < 1 | CC(C)c1cnnc(Nc2ccc3ncc(-c4cnn(C5CN(C)C5)c4)cc3n2)c1 [Example 0490] | ≥ 25 | – |
| < 1 | < 1 | COCCN(C)CCCn1cc(-c2cnc3ccc(Nc4cc(C(C)C)cnn4)nc3c2)cn1 [Example 0659] | ≥ 25 | – |
| < 1 | < 1 | CC(C)c1cnnc(Nc2ccc3ncc(-c4cnn(CCCN5CCS(=O)(=O)CC5)c4)cc3n2)c1 [Example 0417, 4-(3-(4-(6-((5-isopropylpyridazin-3-yl)amino)-1,5-naphthyridin-3-yl)-1H-pyrazol-1-yl)propyl)thiomorpholine 1,1-dioxide] | ≥ 25 | – |
| < 1 | < 1 | CC(C)c1cnnc(Nc2ccc3ncc(-c4cnn(CCCN5CCO[C@@H](C)C5)c4)cc3n2)c1 [Example 0644] | ≥ 25 | – |
| < 1 | < 1 | COC1CN(CCCn2cc(-c3cnc4ccc(Nc5cc(C(C)C)cnn5)nc4c3)cn2)C1 [Example 0630] | ≥ 25 | – |
| < 1 | < 1 | COc1ccc(-c2nn(C)cc2-c2cnc3ccc(Nc4cc(C(C)C)cnn4)nc3c2)cn1 [Example 0456] | ≥ 25 | – |
| < 1 | < 1 | Cc1ncccc1-c1nn(C)cc1-c1cnc2ccc(Nc3cc(C(C)C)cnn3)nc2c1 [Example 0737] | ≥ 25 | – |
| < 1 | < 1 | CC(C)c1cnnc(Nc2ccc3ncc(-c4cnn(CCCN5CC6(COC6)C5)c4)cc3n2)c1 [Example 0613] | ≥ 25 | – |
| < 1 | < 1 | CC(C)c1cnnc(Nc2ccc3ncc(-c4cnn(CCCN5CCOC(CO)C5)c4)cc3n2)c1 (stereo not drawn) [Example 0678] | ≥ 25 | – |
| < 1 | < 1 | CC(C)c1cnnc(Nc2ccc3ncc(-c4cnn(CCCN5CC(F)C5)c4)cc3n2)c1 [Example 0694, 7-(1-(3-(3-Fluoroazetidin-1-yl)propyl)-1H-pyrazol-4-yl)-N-(5-isopropylpyridazin-3-yl)-1,5-naphthyridine-2-amine] | ≥ 25 | – |
| < 1 | < 1 | CC(C)c1cnnc(Nc2ccc3ncc(-c4cnn(CC(F)CN5CCOCC5)c4)cc3n2)c1 (stereo not drawn) [Example 0733] | ≥ 25 | – |
| < 1 | < 1 | CC(C)c1cnnc(Nc2ccc3ncc(-c4cnn([C@@H]5CCN(C)C5)c4)cc3n2)c1 [Example 0493] | ≥ 25 | – |
